In ChEMBL document CHEMBL1201862, “PubChem BioAssay data set” (2004):
Activity calls are given as the source filed them.

Tests used:
[1] = Vero E6 cell cytotoxicity, dose response, cytotoxicity control for non-replicating M. tuberculosis project, secondary assay (AID 492998); type: functional, VeroE6; conditions: Vero C1008
cells [2] = type: functional, cell-based
[3] = target: DNA damage-inducible transcript 3 protein (Mus musculus, UniProt P35639); type: functional, Cricetulus griseus
cells [4] = type: functional
Nonstructural protein 1 = Nonstructural protein 1 (Influenza A virus, UniProt Q194T2); type: functional, Influenza A virus (A/California/07/2009(H1N1))
Chain of Nonstructural protein 1 (Q194T2 whole entry): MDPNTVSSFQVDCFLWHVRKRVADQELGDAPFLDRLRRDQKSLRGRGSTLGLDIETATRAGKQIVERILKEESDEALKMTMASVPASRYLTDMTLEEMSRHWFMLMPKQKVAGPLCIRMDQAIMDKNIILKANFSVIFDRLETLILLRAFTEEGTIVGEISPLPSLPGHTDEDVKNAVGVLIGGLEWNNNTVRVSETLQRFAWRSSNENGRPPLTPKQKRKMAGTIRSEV

[5] = target: T1, Trace amine-associated receptor 1 (Homo sapiens, UniProt Q96RJ0); test: Counterscreen for agonists of the human trace amine associated receptor 1 (hTAAR1): Fluorescence-based cell-based high throughput dose response assay to identify hTAAR1 agonist that also desensitize TAAR1 receptor response.; type: functional
T1 sequence (Q96RJ0 whole entry): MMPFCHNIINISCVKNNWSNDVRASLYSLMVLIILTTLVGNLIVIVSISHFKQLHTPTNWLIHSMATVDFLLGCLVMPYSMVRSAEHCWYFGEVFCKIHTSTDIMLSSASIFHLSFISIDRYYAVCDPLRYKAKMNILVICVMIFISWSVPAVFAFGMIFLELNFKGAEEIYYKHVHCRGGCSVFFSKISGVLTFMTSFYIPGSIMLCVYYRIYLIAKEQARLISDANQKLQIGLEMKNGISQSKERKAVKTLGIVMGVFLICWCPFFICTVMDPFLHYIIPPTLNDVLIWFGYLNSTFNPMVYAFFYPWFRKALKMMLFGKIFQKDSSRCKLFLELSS

[6] = target: T2, DNA repair protein RAD52 homolog (Homo sapiens, UniProt P43351); type: functional, biochemical
T2 sequence (P43351 whole entry): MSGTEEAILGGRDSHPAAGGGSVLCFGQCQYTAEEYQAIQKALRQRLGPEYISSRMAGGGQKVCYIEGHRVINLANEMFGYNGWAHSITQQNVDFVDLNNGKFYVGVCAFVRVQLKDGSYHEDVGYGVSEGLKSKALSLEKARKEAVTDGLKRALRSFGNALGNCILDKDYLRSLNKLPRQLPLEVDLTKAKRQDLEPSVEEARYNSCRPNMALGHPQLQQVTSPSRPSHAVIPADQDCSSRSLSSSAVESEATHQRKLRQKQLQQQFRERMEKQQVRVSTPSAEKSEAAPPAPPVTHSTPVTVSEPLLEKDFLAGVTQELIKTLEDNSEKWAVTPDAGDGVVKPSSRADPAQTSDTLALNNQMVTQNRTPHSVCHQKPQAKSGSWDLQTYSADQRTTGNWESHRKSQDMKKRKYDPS

[7] = target: T3, Ubiquitin-conjugating enzyme E2 N (Homo sapiens, UniProt P61088); type: functional;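 note: Dose-response confirmation in a TR-FRET assay detecting UBC13-driven polyubiquitin chain formation, inhibition measured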
T3 sequence (P61088 whole entry): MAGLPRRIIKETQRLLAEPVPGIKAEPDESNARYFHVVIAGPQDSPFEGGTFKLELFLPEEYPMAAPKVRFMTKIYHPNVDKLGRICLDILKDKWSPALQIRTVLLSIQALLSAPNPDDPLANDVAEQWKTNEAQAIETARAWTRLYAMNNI

[8] = THP-1 cell cytotoxicity, dose response, cytotoxicity control for non-replicating M. tuberculosis project (AID 489025); type: functional
cells [9] = type: functional, cell-based; remark: listed apart in the source
[10] = target: T1, Trace amine-associated receptor 1; test: Fluorescence-based cell-based high throughput dose response assay to identify agonists of the human trace amine associated receptor 1 (TAAR1).; type: functional
[11] = target: T4, Endoribonuclease toxin MazF (Escherichia coli K-12, UniProt P0AE70); test: substrate-only fluorescence increase artefacts – biochemical, single-stranded RNase substrate, counter-screen for MazEF activator project, dose response (AID 588502); type: functional
T4 sequence (P0AE70 whole entry): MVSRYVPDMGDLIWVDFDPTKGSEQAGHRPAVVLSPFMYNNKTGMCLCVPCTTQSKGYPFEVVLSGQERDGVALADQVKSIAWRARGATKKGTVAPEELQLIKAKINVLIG

[12] = Counterscreen for AddAB inhibitors: absorbance-based bacterial cell-based high throughput dose response assay for inhibitors of bacterial viability. [Related pubchem assays (depositor defined):AID435030, AID449728, AID449731, AID488942, AID488955, AID488956]; type: functional
[13] = target: Heat shock protein HSP 90-alpha (Homo sapiens, UniProt P07900); type: functional, organism-based
[14] = target: Intestinal-type alkaline phosphatase (Mus musculus, UniProt P24822); test: PubChem AID 488874; type: functional
Chain of Intestinal-type alkaline phosphatase (Mus musculus, UniProt P24822) (P24822 whole entry): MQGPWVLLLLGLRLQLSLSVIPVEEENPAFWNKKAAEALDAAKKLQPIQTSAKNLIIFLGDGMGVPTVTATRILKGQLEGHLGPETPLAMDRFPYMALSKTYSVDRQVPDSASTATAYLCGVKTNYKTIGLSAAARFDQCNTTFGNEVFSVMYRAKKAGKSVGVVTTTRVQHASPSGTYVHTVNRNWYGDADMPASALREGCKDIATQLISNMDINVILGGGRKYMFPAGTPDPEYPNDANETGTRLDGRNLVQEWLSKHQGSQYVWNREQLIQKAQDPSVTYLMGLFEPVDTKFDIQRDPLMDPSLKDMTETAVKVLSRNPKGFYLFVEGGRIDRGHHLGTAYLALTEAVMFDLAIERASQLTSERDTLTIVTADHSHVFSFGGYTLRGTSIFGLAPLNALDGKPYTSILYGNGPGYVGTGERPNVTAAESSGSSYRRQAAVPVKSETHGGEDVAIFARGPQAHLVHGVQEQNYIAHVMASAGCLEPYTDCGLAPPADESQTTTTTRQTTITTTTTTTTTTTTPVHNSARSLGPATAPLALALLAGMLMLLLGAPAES

[15] = target: T4, Endoribonuclease toxin MazF; test: activation of MazEF endoribonuclease cleavage – biochemical, fluorescence, single-stranded RNA substrate, uHTS hits, dose response (AID 588481); type: functional
[16] = target: T5, Intestinal-type alkaline phosphatase (Homo sapiens, UniProt P09923); test: human intestinal alkaline phosphatase activators, dose response, biochemical, luminescence, uHTS hits (AID 463120); type: functional
T5 sequence (P09923 whole entry): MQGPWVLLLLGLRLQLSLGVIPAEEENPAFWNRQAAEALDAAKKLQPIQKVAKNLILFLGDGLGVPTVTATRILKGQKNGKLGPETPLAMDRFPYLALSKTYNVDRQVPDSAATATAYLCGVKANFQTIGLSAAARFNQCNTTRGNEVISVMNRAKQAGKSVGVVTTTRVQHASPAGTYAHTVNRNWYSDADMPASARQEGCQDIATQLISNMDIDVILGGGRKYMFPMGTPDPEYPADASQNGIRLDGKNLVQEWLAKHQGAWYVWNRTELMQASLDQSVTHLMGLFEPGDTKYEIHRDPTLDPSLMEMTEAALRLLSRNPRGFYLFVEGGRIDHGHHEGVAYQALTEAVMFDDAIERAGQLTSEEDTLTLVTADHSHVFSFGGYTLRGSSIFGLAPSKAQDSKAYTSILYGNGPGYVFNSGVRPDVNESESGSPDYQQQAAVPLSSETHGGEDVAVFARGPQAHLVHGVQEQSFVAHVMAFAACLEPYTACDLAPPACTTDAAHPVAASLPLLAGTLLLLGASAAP

[17] = target: T5, Intestinal-type alkaline phosphatase; test: activation of human intestinal alkaline phosphatase – biochemical, luminescent, uHTS hits, set 2, dose response (AID 488817); type: functional;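 note: potency of activators that raise enzyme activity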
Exodeoxyribonuclease V = target: T6, Exodeoxyribonuclease V (Escherichia coli (strain K12), UniProt P04993+P07648+P08394); test: RecBCD inhibition via phage-restricted bacterial growth – absorbance, V66 E. coli, mutant T4 phage, counter-screen for AddAB inhibitor project, dose response (AID 492957); type: functional, cell-based, Escherichia coli str. K-12 substr. MG1655
T6 sequence (P04993 whole entry): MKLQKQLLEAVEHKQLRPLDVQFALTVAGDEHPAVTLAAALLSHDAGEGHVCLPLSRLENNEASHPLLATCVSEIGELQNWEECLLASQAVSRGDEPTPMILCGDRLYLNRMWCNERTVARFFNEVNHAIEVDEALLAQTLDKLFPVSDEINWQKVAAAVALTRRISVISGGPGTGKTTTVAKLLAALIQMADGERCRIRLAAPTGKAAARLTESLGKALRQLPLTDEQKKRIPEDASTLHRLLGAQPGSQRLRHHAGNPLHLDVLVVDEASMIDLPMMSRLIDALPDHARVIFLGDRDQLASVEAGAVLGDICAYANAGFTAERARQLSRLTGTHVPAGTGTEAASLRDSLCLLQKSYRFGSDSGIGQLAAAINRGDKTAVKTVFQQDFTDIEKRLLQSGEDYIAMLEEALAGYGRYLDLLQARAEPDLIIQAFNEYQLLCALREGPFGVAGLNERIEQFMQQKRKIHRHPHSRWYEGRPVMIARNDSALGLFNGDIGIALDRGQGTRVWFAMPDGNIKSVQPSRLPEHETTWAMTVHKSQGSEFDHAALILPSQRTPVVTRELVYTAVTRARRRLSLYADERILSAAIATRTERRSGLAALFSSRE
T6 sequence (P07648 whole entry): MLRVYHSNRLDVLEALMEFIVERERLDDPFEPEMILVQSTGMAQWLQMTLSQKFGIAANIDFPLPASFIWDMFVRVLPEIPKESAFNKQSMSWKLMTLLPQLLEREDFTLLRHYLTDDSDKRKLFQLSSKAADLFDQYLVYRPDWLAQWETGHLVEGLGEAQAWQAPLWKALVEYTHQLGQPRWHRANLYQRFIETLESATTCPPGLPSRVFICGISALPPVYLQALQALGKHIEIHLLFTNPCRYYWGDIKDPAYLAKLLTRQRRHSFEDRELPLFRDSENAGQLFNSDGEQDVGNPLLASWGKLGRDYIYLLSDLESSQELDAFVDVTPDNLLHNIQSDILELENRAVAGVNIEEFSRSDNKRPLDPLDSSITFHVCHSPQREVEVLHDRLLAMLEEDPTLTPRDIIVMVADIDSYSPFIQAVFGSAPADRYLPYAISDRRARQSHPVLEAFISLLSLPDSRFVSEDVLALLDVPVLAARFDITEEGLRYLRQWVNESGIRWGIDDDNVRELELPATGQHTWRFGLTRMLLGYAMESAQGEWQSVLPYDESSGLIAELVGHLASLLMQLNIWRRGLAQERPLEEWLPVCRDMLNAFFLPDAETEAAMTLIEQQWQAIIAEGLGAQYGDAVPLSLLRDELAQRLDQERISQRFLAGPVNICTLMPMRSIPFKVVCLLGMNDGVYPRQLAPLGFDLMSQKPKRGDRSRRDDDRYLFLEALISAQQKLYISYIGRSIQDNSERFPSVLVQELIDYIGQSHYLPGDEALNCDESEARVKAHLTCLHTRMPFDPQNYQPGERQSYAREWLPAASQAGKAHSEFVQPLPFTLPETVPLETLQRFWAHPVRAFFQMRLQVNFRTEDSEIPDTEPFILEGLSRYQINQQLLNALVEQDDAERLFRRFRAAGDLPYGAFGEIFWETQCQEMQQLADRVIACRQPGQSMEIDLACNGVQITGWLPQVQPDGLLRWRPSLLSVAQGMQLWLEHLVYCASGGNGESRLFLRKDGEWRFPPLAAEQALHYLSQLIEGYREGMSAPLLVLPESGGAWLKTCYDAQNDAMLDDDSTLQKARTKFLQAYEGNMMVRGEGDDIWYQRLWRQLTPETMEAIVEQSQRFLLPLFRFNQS
T6 sequence (P08394 whole entry): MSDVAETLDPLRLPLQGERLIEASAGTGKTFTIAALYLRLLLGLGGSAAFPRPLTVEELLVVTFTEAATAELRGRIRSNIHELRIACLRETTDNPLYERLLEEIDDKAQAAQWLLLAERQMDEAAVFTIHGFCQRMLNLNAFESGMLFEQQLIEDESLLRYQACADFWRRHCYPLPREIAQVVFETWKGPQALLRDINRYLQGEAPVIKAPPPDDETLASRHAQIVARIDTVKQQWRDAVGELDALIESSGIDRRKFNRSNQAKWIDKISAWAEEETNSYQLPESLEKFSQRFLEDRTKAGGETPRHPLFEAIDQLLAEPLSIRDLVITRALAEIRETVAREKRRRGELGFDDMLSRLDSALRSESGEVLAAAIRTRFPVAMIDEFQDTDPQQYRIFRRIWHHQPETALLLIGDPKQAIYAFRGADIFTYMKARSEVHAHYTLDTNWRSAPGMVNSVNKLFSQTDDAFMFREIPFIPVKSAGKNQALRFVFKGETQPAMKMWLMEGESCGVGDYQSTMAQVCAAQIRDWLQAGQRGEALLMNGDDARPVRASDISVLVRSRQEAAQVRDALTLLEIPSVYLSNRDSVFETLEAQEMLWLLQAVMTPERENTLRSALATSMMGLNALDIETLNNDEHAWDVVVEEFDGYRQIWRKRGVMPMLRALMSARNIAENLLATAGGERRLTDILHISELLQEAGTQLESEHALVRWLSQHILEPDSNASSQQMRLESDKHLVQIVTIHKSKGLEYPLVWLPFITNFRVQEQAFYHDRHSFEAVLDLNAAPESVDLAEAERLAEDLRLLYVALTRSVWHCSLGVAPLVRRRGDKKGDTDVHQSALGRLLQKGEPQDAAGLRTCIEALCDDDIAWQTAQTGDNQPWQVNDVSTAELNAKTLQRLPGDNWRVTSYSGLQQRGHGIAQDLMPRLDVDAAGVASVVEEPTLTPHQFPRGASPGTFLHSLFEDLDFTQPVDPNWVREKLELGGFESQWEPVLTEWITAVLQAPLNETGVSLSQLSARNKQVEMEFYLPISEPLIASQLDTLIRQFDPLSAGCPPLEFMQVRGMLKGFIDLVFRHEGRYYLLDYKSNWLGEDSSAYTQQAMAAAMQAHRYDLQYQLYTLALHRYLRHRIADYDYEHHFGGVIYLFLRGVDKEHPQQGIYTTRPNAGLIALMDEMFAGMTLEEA

[18] = microbe, parasite or virus in culture; type: functional; conditions: Mycobacterium tuberculosis

Chain of DNA damage-inducible transcript 3 protein (P35639 whole entry): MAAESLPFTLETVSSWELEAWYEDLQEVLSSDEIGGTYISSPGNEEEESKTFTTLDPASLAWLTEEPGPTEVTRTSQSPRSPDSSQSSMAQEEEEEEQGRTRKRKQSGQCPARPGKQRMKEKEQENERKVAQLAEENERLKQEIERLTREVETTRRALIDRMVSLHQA

| SMILES | CC50 [1] | EC50 (cells [2]) | Absolute IC50 (CHOP) [3] | IC50 (cells [4]) | IC50 (Nonstructural protein 1) | IC50 [5] | AC50 [6] | IC50 [7] | CC50 [8] | IC50 (cells [9]) | EC50 [10] | EC50 [11] | IC50 [12] | AC50 [13] | IC50 [14] | EC50 [15] | EC50 [16] | EC50 [17] | IC50 (Exodeoxyribonuclease V) | CC50 [18] |
| --- | --- | --- | --- | --- | --- | --- | --- | --- | --- | --- | --- | --- | --- | --- | --- | --- | --- | --- | --- | --- |
| N=C(N)N/N=C/c1cn(-c2ccccc2)nc1-c1cccs1.O=[N+]([O-])O | 11 µM (active) | 11.4 µM (inactive) | 10 µM | 11 µM (active) | > 100 µM (active) | 17.7 µM (inactive) | 3.85 µM (active) | > 20 µM (inactive) | 12.3 µM (active) | 12.2 µM (inactive) | 6.9 µM (active) | – | – | – | – | – | – | – | – | – |
| C=CCN1C(=O)/C(=N/Nc2ccccc2O)c2ccccc21 | – | – | – | – | – | – | – | – | – | – | – | 46.3 µM (inactive) | 42.8 µM (inactive) | 10.9 µM (active) | 9.81 µM (active) | > 99 µM (inactive) | 8.62 µM (active) | 0.378 µM (active) | > 118 µM (inactive) | 38.1 µM (active) |
